For 6 compounds, dTm and IC50 results are on record in paper PMC12361511 (The EMBO Journal, 2025).

The term pIC50 denotes −log10 of the IC50, conventionally taken in molar units.

pIC50: −log10 of the molar value.

Assay [1] deals with T1, PPP2R1A (Mus musculus, UniProt Q76MZ3).
T1 construct: full length, C-terminal 6xHis, E. coli (BL-21 or Arctic Express), about 65 kDa, isolated subunit; 893-PAL is the native protein in mouse FL5.12 / mPCE cells
The assay can be described thus: thermal shift (DSF, SYPRO Orange). It is filed as binding. The following applies: 5 µM protein, 10 mM NaH2PO4 pH 6.0, 25 mM NaCl, 1 mM β-mercaptoethanol; destabilising.

The target in assay [2] is T2, KPNB1.1 (Homo sapiens, UniProt Q14974).
T2 construct: amino acids 1-442 (N-terminal half), N-terminal 10xHis, codon-optimized, E. coli, about 44 kDa
The assay can be described thus: thermal shift (DSF, SYPRO Orange). Type of assay: binding. The conditions noted are these: 5 µM protein, 10 mM NaH2PO4 pH 6.0, 25 mM NaCl, 1 mM β-mercaptoethanol; destabilising.

For assay [3], the target named is T1, PPP2R1A. Put plainly: thermal shift (DSF, SYPRO Orange); also CD. It is filed as binding. The following applies: 5 µM protein, 10 mM NaH2PO4 pH 6.0, 25 mM NaCl, 1 mM β-mercaptoethanol; destabilising, reversible on dialysis.
Assay [4] deals with T2, KPNB1.1. The assay can be described thus: thermal shift (DSF, SYPRO Orange); also CD. The conditions noted are these: 5 µM protein, 10 mM NaH2PO4 pH 6.0, 25 mM NaCl, 1 mM β-mercaptoethanol; destabilising, reversible on dialysis. Type of assay: binding.
In the next assay the test system is FL5.12. Put plainly: cells. The following applies: Mus musculus, FL5.12, 48 h. The arrangement: cytotoxicity / viability IC50 in FL5.12 cells at 48 h.

T2 sequence (Q14974 1-442): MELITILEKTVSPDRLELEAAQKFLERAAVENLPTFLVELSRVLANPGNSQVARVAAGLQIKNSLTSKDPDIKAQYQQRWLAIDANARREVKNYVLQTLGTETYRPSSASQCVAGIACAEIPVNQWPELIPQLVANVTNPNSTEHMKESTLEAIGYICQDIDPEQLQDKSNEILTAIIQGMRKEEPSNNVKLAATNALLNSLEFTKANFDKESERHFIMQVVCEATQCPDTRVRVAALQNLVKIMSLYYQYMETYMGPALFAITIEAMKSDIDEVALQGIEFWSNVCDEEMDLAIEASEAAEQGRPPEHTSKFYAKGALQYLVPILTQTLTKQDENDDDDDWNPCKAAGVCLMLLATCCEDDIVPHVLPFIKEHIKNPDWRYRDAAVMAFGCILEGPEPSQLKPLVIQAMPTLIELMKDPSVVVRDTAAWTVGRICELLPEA
T1 sequence (Q76MZ3 2-589): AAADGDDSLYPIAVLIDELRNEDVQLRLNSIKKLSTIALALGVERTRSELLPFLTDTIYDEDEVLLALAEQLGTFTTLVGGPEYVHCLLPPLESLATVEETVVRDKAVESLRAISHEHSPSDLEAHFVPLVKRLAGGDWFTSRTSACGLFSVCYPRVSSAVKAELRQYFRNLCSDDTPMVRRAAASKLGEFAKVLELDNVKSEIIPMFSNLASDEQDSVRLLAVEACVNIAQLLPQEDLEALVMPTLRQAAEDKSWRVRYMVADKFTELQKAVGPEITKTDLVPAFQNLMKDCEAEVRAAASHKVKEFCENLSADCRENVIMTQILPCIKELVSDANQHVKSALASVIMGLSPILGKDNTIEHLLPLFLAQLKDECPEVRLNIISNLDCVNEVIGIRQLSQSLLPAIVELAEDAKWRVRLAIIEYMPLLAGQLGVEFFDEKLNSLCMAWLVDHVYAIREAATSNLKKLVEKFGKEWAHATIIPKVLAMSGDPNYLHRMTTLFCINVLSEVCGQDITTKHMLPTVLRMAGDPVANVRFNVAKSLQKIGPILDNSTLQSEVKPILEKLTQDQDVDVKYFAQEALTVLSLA

Take `CCCCCCCCc1ccc(CCC(N)(CO)CO)cc1` [FTY720]: the dTm entry on PPP2R1A [1] is “SH-BC-893, FTY720, and the natural sphingolipid phytosphingosine reduced rather than increased the Tm of both”; at KPNB1.1 [2], “SH-BC-893, FTY720, and the natural sphingolipid phytosphingosine reduced rather than increased the Tm of both”.
For the compound `CCCCCCCCc1ccc([C@H]2CCN[C@@H]2CO)cc1` [SH-BC-893], the dTm result is “SH-BC-893, FTY720, and the natural sphingolipid phytosphingosine reduced rather than increased the Tm of both” on PPP2R1A [3]; “SH-BC-893, FTY720, and the natural sphingolipid phytosphingosine reduced rather than increased the Tm of both” at KPNB1.1 [4]. Further, the pIC50 in the assay with FL5.12 is 5.70.
In the case of `CCCCCCCCCCCCC/C=C/[C@@H](O)[C@H](CO)N(C)C` [dimethylsphingosine], the dTm result is “safingol and dimethylsphingosine (DMS) induced conformational changes in PPP2R1A and KPNB1” on PPP2R1A [1]; “safingol and dimethylsphingosine (DMS) induced conformational changes in PPP2R1A and KPNB1” on KPNB1.1 [2].
Turning to `CCCCCCCCCCCCCC[C@@H](O)[C@@H](O)[C@@H](N)CO` [phytosphingosine], the dTm result on PPP2R1A [1] is “SH-BC-893, FTY720, and the natural sphingolipid phytosphingosine reduced rather than increased the Tm of both”; on KPNB1.1 [2] it was “SH-BC-893, FTY720, and the natural sphingolipid phytosphingosine reduced rather than increased the Tm of both”. Also, in the assay on FL5.12, the pIC50 was 5.49.
Turning to `CCCCCCCCCCCCCCC[C@H](O)[C@@H](N)CO` [safingol], the dTm result at PPP2R1A [1] is “safingol and dimethylsphingosine (DMS) induced conformational changes in PPP2R1A and KPNB1”; at KPNB1.1 [2] it was “safingol and dimethylsphingosine (DMS) induced conformational changes in PPP2R1A and KPNB1”.
Consider `CCCCCCCCCCCCC/C=C/[C@@H](O)[C@@H](N)CO` [sphingosine], for which the dTm entry at PPP2R1A [1] was “sphingosine triggered conformational changes in both PPP2R1A and KPNB1”; at KPNB1.1 [2], “sphingosine triggered conformational changes in both PPP2R1A and KPNB1”.
